{"source": "paper PMC6278664", "about": "“Highly Cancer Selective Antiproliferative Activity of Natural Prenylated Flavonoids” (Molecules, 2018)", "key": {"[1]": {"tested_on": "PC-3 human prostate cancer cell line", "experiment": "SRB antiproliferative assay, PC-3", "assay_type": "cell-based", "description": "(§1) We determined the effect of various structural factors in the substrates on the antiproliferative activity against those selected to the study cell lines: the location and/or the presence of the prenyl group, the chalcone/flavanone skeleton and the presence of an O-methyl group at C-5 in flavanones. Flavonoids presented in Figure 1 were tested for the antiproliferative activity towards eight cancer cell lines including estrogen-dependent (MCF7 and T-47D) and two normal ones (HLMEC and MCF 10A). The in vitro antiproliferative activity was measured using SRB assay. The results are presented in Figure 2 (and in the supplement in Table S1). The antiproliferative activity was measured separately for each of the experiments and given as the average IC50 (the concentration of tested compound which inhibits 50% of the cells population). Cisplatin (CP), a common anticancer drug, was used as a positive control.\n(§2) The following established in vitro cell lines were applied: MCF7, T-47D, MDA-MB-231 (human breast cancer cell line), A2780 (human ovarian cancer cell line), A2780cis (human cisplatin-resistant ovarian cancer cell line), PC-3 and DU 145 (human prostate cancer cell lines), HT-29 (human colon cancer cell line), HLMEC (human lung microvascular endothelial cell line), and MCF 10A (human mammary epithelial cells line).\n(§3) The cell lines: MDA-MB-231, HT-29, PC-3, DU 145, and MCF 10A were obtained from the American Type Culture Collection (Rockville, MD, USA), MCF7, T-47D, A2780, A2780cis from the European Collection Cell Cultures (Sigma-Aldrich, Chemie GmbH, Steinheim, Germany), while the HLMEC cell line was obtained by M. Paprocka from the institute. All cell lines are being maintained in the Institute of Immunology and Experimental Therapy (Wrocław, Poland). DU 145 and MCF7 cells were cultured in Eagle medium (supplemented with 4mM L-glutamine, 10% fetal bovine serum, 1 mM sodium pyruvate for DU 145 cells or 2 mM L-glutamine, 1% mem non-essential amino acid solution and 8 µg/mL insulin and 10% fetal bovine serum for MCF7). […] HT-29 and T-47D cell lines were cultured in RPMI 1640 + OPTI-MEM medium supplemented with 2 mM L-glutamine, 5% fetal bovine serum and 8 µg/mL of insulin (T-47D) or 1 mM sodium pyruvate (HT-29). MDA-MB-231, PC-3 and HLMEC cell lines were cultured in RPMI 1640 medium supplemented with 2 mM L-glutamine and 10% fetal bovine serum. Medium for MCF 10A cell line consisted of F-12 nutrient mixture supplemented with cholera toxin (0.05 µg/mL), insulin (10 µg/mL), hydrocortisone (0.5 µg/mL), 5% horse serum, and EGFH (20 ng/mL). All the culture media contained antibiotics: 100 units/mL penicillin (Polfa Tarchomin SA, Warsaw, Poland), and 100 µg/mL streptomycin (Sigma-Aldrich, Chemie GmbH, Steinheim, Germany). All cell lines were grown at 37 °C with 5% CO2 humidified atmosphere.\n(§4) Twenty-four hours before the incubation with the tested compounds, the cells were seeded in 96-plates (Sarstedt, Germany) at a density of 1 × 10^4 cells per well (0.75 × 10^4 per well for MCF7 and 1 × 10^3 per well for HLMEC) in 100 µL of a culture medium.\n(§5) Each agent at each concentration (from 0.1 to 100 µg/mL) was tested in a single experiment, which was repeated four to five times. […] Cisplatin was used as a reference drug.\n(§6) The results were calculated as the IC50 (inhibitory concentration 50%)—the concentration of the tested compound which inhibits 50% of the cells population. IC50 values were calculated for each experiment separately and mean values ± SD are presented in the Table S1 in the Supplementary Materials. Each compound at each concentration was tested in triplicate in a single experiment, which was repeated four to five times.\n(§7) The cells were fixed in situ by gently adding cold 50% trichloroacetic acid (50 µL per well). The plates were incubated at 4 °C for 1h and then washed five times with tap water. […]"}, "[2]": {"tested_on": "MCF 10A human mammary epithelial cells line", "experiment": "SRB antiproliferative assay, MCF 10A (normal)", "assay_type": "cell-based", "settings": "Homo sapiens, MCF-10A, 72 h, mean ± SD, read-out: Normal cell line, IC50, MCF-10A", "description": "as §1, §2, §3, §4, §5, §6, §7"}, "[3]": {"tested_on": "DU 145 human prostate cancer cell line", "experiment": "SRB antiproliferative assay, DU 145", "assay_type": "cell-based", "description": "as §1, §2, §3, §4, §5, §6, §7"}, "[4]": {"tested_on": "A2780cis human cisplatin-resistant ovarian cancer cell line", "experiment": "SRB antiproliferative assay, A2780cis", "assay_type": "cell-based", "description": "as §1, §2, §3, §4, §5, §6, §7"}, "[5]": {"tested_on": "T-47D human breast cancer cell line", "experiment": "SRB antiproliferative assay, T-47D", "assay_type": "cell-based", "description": "as §1, §2, §3, §4, §5, §6, §7"}, "[6]": {"tested_on": "HLMEC human lung microvascular endothelial cell line", "experiment": "SRB antiproliferative assay, HLMEC (normal)", "assay_type": "cell-based", "settings": "Homo sapiens, Endothelial cell, 72 h, mean ± SD"}, "[7]": {"tested_on": "MDA-MB-231 human breast cancer cell line", "experiment": "SRB antiproliferative assay, MDA-MB-231", "assay_type": "cell-based", "description": "as §1, §2, §3, §4, §5, §6, §7"}, "[8]": {"tested_on": "A2780 human ovarian cancer cell line", "experiment": "SRB antiproliferative assay, A2780", "assay_type": "cell-based", "description": "as §1, §2, §3, §4, §5, §6, §7"}, "[9]": {"tested_on": "human CYP1B1", "design": "method as in PMID 10752639", "settings": "cited from earlier work"}, "[10]": {"tested_on": "human CYP1A1", "design": "method as in PMID 10752639", "settings": "cited from earlier work"}, "[11]": {"tested_on": "MCF7 human breast cancer cell line", "experiment": "SRB antiproliferative assay, MCF7", "assay_type": "cell-based", "description": "as §1, §2, §3, §4, §5, §6, §7"}, "[12]": {"settings": "breast tissue study of Bolca and co-workers; cited from earlier work"}, "[13]": {"tested_on": "HT-29 human colon cancer cell line", "experiment": "SRB antiproliferative assay, HT-29", "assay_type": "cell-based"}, "[14]": {"tested_on": "PC-3 cell line", "design": "method as in PMID 23434138", "settings": "earlier study; cited from earlier work"}}, "data": [{"smiles": "COc1cc(O)c(CC=C(C)C)c(O)c1C(=O)/C=C/c1ccc(O)cc1", "note": "[XN, 3′-(3,3-dimethylallyl)-4,2′,4′-trihydroxy-6′-methoxychalcone]", "values": [{"measurement": "IC50", "setting": "[1]; Homo sapiens, SRB, 72 h, mean ± SD", "value": "8.61 ± 1.11", "unit": "µM"}, {"measurement": "Selectivity index SIA, PC-3", "setting": "[1]; IC50 HLMEC / IC50 PC-3", "value": 1.11}, {"measurement": "Selectivity index SIB, PC-3", "setting": "[1]; IC50 MCF-10A / IC50 PC-3", "value": 6.50}, {"measurement": "IC50", "setting": "[2]", "value": "56 ± 27.3", "unit": "µM"}, {"measurement": "IC50", "setting": "[3]; Homo sapiens, DU-145, SRB, 72 h, mean ± SD", "value": "6.49 ± 2.14", "unit": "µM"}, {"measurement": "Selectivity index SIA, Du-145", "setting": "[3]; IC50 HLMEC / IC50 Du-145", "value": 1.47}, {"measurement": "Selectivity index SIB, Du-145", "setting": "[3]; IC50 MCF-10A / IC50 Du-145", "value": 8.62}, {"measurement": "IC50", "setting": "[4]; Homo sapiens, A2780cis, SRB, 72 h, mean ± SD, read-out: Cancer cell line, IC50, A-2780cis", "value": "8.21 ± 0.83", "unit": "µM"}, {"measurement": "Selectivity index SIA, A-2780cis", "setting": "[4]; IC50 HLMEC / IC50 A-2780cis", "value": 1.17}, {"measurement": "Selectivity index SIB, A-2780cis", "setting": "[4]; IC50 MCF-10A / IC50 A-2780cis", "value": 6.81}, {"measurement": "IC50", "setting": "[5]; Homo sapiens, T47D, SRB, 72 h, mean ± SD", "value": "7.99 ± 2.77", "unit": "µM"}, {"measurement": "Selectivity index SIA, T-47D", "setting": "[5]; IC50 HLMEC / IC50 T-47D", "value": 1.20}, {"measurement": "Selectivity index SIB, T-47D", "setting": "[5]; IC50 MCF-10A / IC50 T-47D", "value": 7.00}, {"measurement": "IC50", "setting": "[6]", "value": "9.57 ± 4.23", "unit": "µM"}, {"measurement": "IC50", "setting": "[7]; Homo sapiens, MDA-MB-231, SRB, 72 h, mean ± SD", "value": "8.46 ± 3.19", "unit": "µM"}, {"measurement": "Selectivity index SIA, MDA-MB-231", "setting": "[7]; IC50 HLMEC / IC50 MDA-MB-231", "value": 1.13}, {"measurement": "Selectivity index SIB, MDA-MB-231", "setting": "[7]; IC50 MCF-10A / IC50 MDA-MB-231", "value": 6.61}, {"measurement": "IC50", "setting": "[8]; Homo sapiens, A2780, SRB, 72 h, mean ± SD, read-out: Cancer cell line, IC50, A-2780", "value": "2.06 ± 1.03", "unit": "µM"}, {"measurement": "Selectivity index SIA, A-2780", "setting": "[8]; IC50 HLMEC / IC50 A-2780", "value": 4.65}, {"measurement": "Selectivity index SIB, A-2780", "setting": "[8]; IC50 MCF-10A / IC50 A-2780", "value": 27.16}, {"measurement": "SIA against A2780, times higher than the reference", "setting": "[8]; ratio of SIA to SIA of cisplatin", "value": "5-8 times"}, {"measurement": "Inhibition of EROD activity of CYP1B1", "setting": "[9]", "value": "almost completely inhibited"}, {"measurement": "Inhibition of EROD activity of CYP1A1", "setting": "[10]", "value": "almost completely inhibited"}, {"measurement": "IC50", "setting": "[11]; Homo sapiens, MCF7, 72 h, SRB, 72 h, mean ± SD", "value": "10.8 ± 0.32", "unit": "µM"}, {"measurement": "Selectivity index SIA, MCF-7", "setting": "[11]; IC50 HLMEC / IC50 MCF-7", "value": 0.88}, {"measurement": "Selectivity index SIB, MCF-7", "setting": "[11]; IC50 MCF-10A / IC50 MCF-7", "value": 5.16}, {"measurement": "Glucuronidation", "setting": "[12]", "value": "> 90", "unit": "%"}, {"measurement": "IC50", "setting": "[13]; Homo sapiens, HT-29, SRB, 72 h, mean ± SD", "value": "9.42 ± 0.25", "unit": "µM"}, {"measurement": "Selectivity index SIA, HT-29", "setting": "[13]; IC50 HLMEC / IC50 HT-29", "value": 1.02}, {"measurement": "Selectivity index SIB, HT-29", "setting": "[13]; IC50 MCF-10A / IC50 HT-29", "value": 5.94}]}, {"smiles": "COc1cc(O)c(CCC(C)(C)O)c(O)c1C(=O)/C=C/c1ccc(O)cc1", "note": "[xanthohumol H, 3′-[3′-hydroxy-3”methylbutyl]-4,2′,4′-trihydroxy-6′-methoxychalcone]", "values": [{"measurement": "Antiproliferative activity towards PC-3 cell line", "setting": "[14]", "value": "inactive"}]}]}
